# How the values were obtained:
# HDAC5 = molecular target: T1, HDAC5 (Homo sapiens, UniProt Q9UQL6); assay: In vitro HDAC enzyme assay (Reaction Biology Corporation), HDAC5; type: biochemical; details: Table 2 isozyme screen; duplicate, SD < 15%
# T1 construct: purchased Reaction Biology Corporation
# RPMI-8226 = assay: Antiproliferative assay (Alamar blue, 72 h), RPMI-8226; type: cell-based, human; details: Homo sapiens, RPMI-8226 cells, three independent experiments, SD < 10%, read-out: Antiproliferative effect IC50, RPMI-8226
# Experimental: The cells were cultured in IMDM (Gibco) medium with 20% FBS (Lonsera), 100 U/mL penicillin, and 100 µg/mL streptomycin (Solarbio). All cells were maintained at 37 °C in a humidified atmosphere of 5% CO2 in air. Briefly, 100 µL cell suspension or completed medium was plated into a 96-well plate. Compounds were added and incubated for 72 h. Then, 22 µL Alamar blue solution (1 mM) was pipetted into each well of a 96-well plate, and the plate was incubated for an additional 5~6 h. The absorbance (OD) was read at 530/590 nm. Data were normalized to vehicle groups (DMSO) and represented as the means of three independent measurements with standard errors of <20%. The IC50 values were calculated using Prism 5.0.
# CCRF-CEM = assay: NCI-60 antiproliferative screening, CCRF-CEM; type: cell-based; details: Homo sapiens, CCRF-CEM (Leukemia), read-out: Inhibition% values at 10 μM concentration
# Description: (§1) Then, 8f was submitted to NCI for antiproliferative evaluation against 59 different tumor cell lines. The cancer types of the NCI-60 program include leukemia, non-small cell lung cancer (NSCLC), colon cancer, CNS cancer, melanoma, ovary cancer, renal cancer, prostate cancer, and breast cancer.
# HL60 = assay: NCI-60 antiproliferative screening, HL60; type: cell-based; details: Homo sapiens, HL-60, HL60 (Leukemia), read-out: Inhibition% values at 10 μM concentration
# Description: as §1
# SR = assay: NCI-60 antiproliferative screening, SR; type: cell-based; details: Homo sapiens, SR (Leukemia), read-out: Inhibition% values at 10 μM concentration
# Description: as §1
# A549/ATCC = assay: NCI-60 antiproliferative screening, A549/ATCC; type: cell-based; details: Homo sapiens, A549/ATCC (Non-Small Cell Lung Cancer), read-out: Inhibition% values at 10 μM concentration
# Description: as §1
# EKVX = assay: NCI-60 antiproliferative screening, EKVX; type: cell-based; details: Homo sapiens, EKVX (Non-Small Cell Lung Cancer), read-out: Inhibition% values at 10 μM concentration
# Description: as §1
# HOP-62 = assay: NCI-60 antiproliferative screening, HOP-62; type: cell-based; details: Homo sapiens, HOP-62 (Non-Small Cell Lung Cancer), read-out: Inhibition% values at 10 μM concentration
# Description: as §1
# HOP-92 = assay: NCI-60 antiproliferative screening, HOP-92; type: cell-based; details: Homo sapiens, HOP-92 (Non-Small Cell Lung Cancer), read-out: Inhibition% values at 10 μM concentration
# Description: as §1
# COLO 205 = assay: NCI-60 antiproliferative screening, COLO 205; type: cell-based; details: Homo sapiens, COLO 205 (Colon Cancer), read-out: Inhibition% values at 10 μM concentration
# Description: as §1
# HCT-15 = assay: NCI-60 antiproliferative screening, HCT-15; type: cell-based; details: Homo sapiens, HCT-15 (Colon Cancer), read-out: Inhibition% values at 10 μM concentration
# Description: as §1
# HT29 = assay: NCI-60 antiproliferative screening, HT29; type: cell-based; details: Homo sapiens, HT-29, HT29 (Colon Cancer), read-out: Inhibition% values at 10 μM concentration
# Description: as §1
# SW-620 = assay: NCI-60 antiproliferative screening, SW-620; type: cell-based; details: Homo sapiens, SW-620 (Colon Cancer), read-out: Inhibition% values at 10 μM concentration
# Description: as §1
# SF-539 = assay: NCI-60 antiproliferative screening, SF-539; type: cell-based; details: Homo sapiens, SF-539 (CNS Cancer), read-out: Inhibition% values at 10 μM concentration
# Description: as §1
# SNB-19 = assay: NCI-60 antiproliferative screening, SNB-19; type: cell-based; details: Homo sapiens, SNB-19 (CNS Cancer), read-out: Inhibition% values at 10 μM concentration
# Description: as §1
# LOX IMVI = assay: NCI-60 antiproliferative screening, LOX IMVI; type: cell-based; details: Homo sapiens, LOX IMVI (Melanoma), read-out: Inhibition% values at 10 μM concentration
# Description: as §1
# SK-MEL-5 = assay: NCI-60 antiproliferative screening, SK-MEL-5; type: cell-based; details: Homo sapiens, SK-MEL-5 (Melanoma), read-out: Inhibition% values at 10 μM concentration
# Description: as §1
# UACC-257 = assay: NCI-60 antiproliferative screening, UACC-257; type: cell-based; details: Homo sapiens, read-out: Inhibition% values at 10 μM concentration
# Description: as §1
# IGROV1 = assay: NCI-60 antiproliferative screening, IGROV1; type: cell-based; details: Homo sapiens, IGROV-1, IGROV1 (Ovarian Cancer), read-out: Inhibition% values at 10 μM concentration
# Description: as §1
# OVCAR-5 = assay: NCI-60 antiproliferative screening, OVCAR-5; type: cell-based; details: Homo sapiens, OVCAR-5 (Ovarian Cancer), read-out: Inhibition% values at 10 μM concentration
# Description: as §1
# OVCAR-8 = assay: NCI-60 antiproliferative screening, OVCAR-8; type: cell-based; details: Homo sapiens, OVCAR-8 (Ovarian Cancer), read-out: Inhibition% values at 10 μM concentration
# Description: as §1
# ACHN = assay: NCI-60 antiproliferative screening, ACHN; type: cell-based; details: Homo sapiens, ACHN (Renal Cancer), read-out: Inhibition% values at 10 μM concentration
# Description: as §1
# CAKI-1 = assay: NCI-60 antiproliferative screening, CAKI-1; type: cell-based; details: Homo sapiens, CAKI-1 (Renal Cancer), read-out: Inhibition% values at 10 μM concentration
# Description: as §1
# UO-31 = assay: NCI-60 antiproliferative screening, UO-31; type: cell-based; details: Homo sapiens, UO-31 (Renal Cancer), read-out: Inhibition% values at 10 μM concentration
# Description: as §1
# DU-145 = assay: NCI-60 antiproliferative screening, DU-145; type: cell-based; details: Homo sapiens, DU-145 (Prostate Cancer), read-out: Inhibition% values at 10 μM concentration
# Description: as §1
# MCF7 = assay: NCI-60 antiproliferative screening, MCF7; type: cell-based; details: Homo sapiens, MCF7 (Breast Cancer), read-out: Inhibition% values at 10 μM concentration
# Description: as §1
# BT-549 = assay: NCI-60 antiproliferative screening, BT-549; type: cell-based; details: Homo sapiens, BT-549 (Breast Cancer), read-out: Inhibition% values at 10 μM concentration
# Description: as §1
# T1 sequence (Q9UQL6 whole entry): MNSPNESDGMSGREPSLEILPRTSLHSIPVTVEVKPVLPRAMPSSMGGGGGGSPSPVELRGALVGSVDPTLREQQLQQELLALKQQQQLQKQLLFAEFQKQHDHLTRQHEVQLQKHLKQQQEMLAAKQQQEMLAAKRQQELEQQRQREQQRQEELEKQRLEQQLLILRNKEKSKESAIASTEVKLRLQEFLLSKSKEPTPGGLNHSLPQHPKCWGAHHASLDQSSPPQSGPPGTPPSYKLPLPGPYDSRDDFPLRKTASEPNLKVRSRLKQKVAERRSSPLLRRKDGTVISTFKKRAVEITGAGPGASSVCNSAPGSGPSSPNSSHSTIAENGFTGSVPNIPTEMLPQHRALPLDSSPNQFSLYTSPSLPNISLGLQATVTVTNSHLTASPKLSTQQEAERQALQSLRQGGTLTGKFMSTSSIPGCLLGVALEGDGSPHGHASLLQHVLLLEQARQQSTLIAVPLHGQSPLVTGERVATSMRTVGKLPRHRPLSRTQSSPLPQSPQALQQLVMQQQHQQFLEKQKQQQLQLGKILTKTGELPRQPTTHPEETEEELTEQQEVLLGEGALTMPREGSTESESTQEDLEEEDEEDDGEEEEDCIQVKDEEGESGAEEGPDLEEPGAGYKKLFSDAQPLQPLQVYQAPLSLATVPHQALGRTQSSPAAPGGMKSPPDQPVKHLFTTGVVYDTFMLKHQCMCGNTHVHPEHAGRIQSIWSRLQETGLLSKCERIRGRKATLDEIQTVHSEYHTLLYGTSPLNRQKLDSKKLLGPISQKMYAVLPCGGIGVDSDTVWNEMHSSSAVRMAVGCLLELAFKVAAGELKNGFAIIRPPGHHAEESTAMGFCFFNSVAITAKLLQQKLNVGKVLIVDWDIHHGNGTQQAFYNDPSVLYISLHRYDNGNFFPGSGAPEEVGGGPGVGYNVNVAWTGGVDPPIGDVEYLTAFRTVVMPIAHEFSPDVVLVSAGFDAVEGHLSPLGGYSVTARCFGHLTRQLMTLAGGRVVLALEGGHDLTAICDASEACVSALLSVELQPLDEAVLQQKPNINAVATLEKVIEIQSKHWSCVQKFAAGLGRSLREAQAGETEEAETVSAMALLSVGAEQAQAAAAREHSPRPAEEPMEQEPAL
structure (smiles),measurement,setting,value
"COc1cccc(-c2nc3c(c(-c4cccc(OC)c4)n2)CCN(C(=O)CCCCCCC(=O)NO)C3)c1 [Compound 8f, 8-(2,4-Bis(3-methoxyphenyl)-5,8-dihydropyrido [3,4-d]pyrimidin-7(6H)-yl)-N-hydroxy-8-oxooctanamide]",HDAC5 IC50,HDAC5,poor activity
same,IC50,HDAC5,> 10 µM
same,IC50,RPMI-8226,2800 nM
same,inhibition at 10 µM,CCRF-CEM,85%
same,inhibition at 10 µM,HL60,100%
same,inhibition at 10 µM,SR,84.3%
same,inhibition at 10 µM,A549/ATCC,87.7%
same,inhibition at 10 µM,EKVX,84.4%
same,inhibition at 10 µM,HOP-62,99.1%
same,inhibition at 10 µM,HOP-92,100%
same,inhibition at 10 µM,COLO 205,100%
same,inhibition at 10 µM,HCT-15,100%
same,inhibition at 10 µM,HT29,95.3%
same,inhibition at 10 µM,SW-620,100%
same,inhibition at 10 µM,SF-539,99%
same,inhibition at 10 µM,SNB-19,100%
same,inhibition at 10 µM,LOX IMVI,100%
same,inhibition at 10 µM,SK-MEL-5,100%
same,inhibition at 10 µM,UACC-257,98.7%
same,inhibition at 10 µM,IGROV1,100%
same,inhibition at 10 µM,OVCAR-5,100%
same,inhibition at 10 µM,OVCAR-8,93.6%
same,inhibition at 10 µM,ACHN,100%
same,inhibition at 10 µM,CAKI-1,100%
same,inhibition at 10 µM,UO-31,100%
same,inhibition at 10 µM,DU-145,89.8%
same,inhibition at 10 µM,MCF7,92.1%
same,inhibition at 10 µM,BT-549,81.9%
same,melting point,,117 to 118 °C

# From paper PMC10648541, “Design, Synthesis, and Antiproliferative Activity of Selective Histone Deacetylases 6 Inhibitors Containing a Tetrahydropyridopyrimidine Scaffold” (Molecules, 2023)
